Measured values published in patent US5708032A, “Fluoroalkenyl compounds and their use as pest control agents” (Monsanto Company, priority 1995, dated 1998).
Values joined by “and” are separate entries in the source; they are usually repeats but may differ in a detail not shown here. Identical values can stand only once. Counter-ions that a name gives are not always drawn. Like-named read-outs stand apart in the source and are kept apart here.

Test system: root knot nematodes (Meloidogyne incognita)
Experiment: systemic control of root knot nematodes on tomato roots by foliar application
Format: in vivo
Conditions: for pest or weed control at 100 ppm / pest or weed control at 500 ppm: Meloidogyne incognita, 504 h, read-out: percent control of root disease relative to non-treated plants
Protocol: Compounds of the present invention, prepared as described above, were tested for effectiveness in controlling root knot nematodes (Meloidogyne incognita) on tomato roots when applied to foliage of young plants.
Tomato plants, cv `Rutgers`, were grown one per pot in six an square plastic pots containing a mixture of equal parts fine sand, coarse sand, silt loam soil, and commercial potting medium. A 10,000 ppm stock solution of each test compound was prepared in either water or acetone. Samples were then diluted with additional water to give final test concentrations of 500 and 100 ppm. Tween®20 was added for a final concentration of 0.5% v/v in all test samples.
When the tomato plants were 18-21 days old the test solutions were sprayed onto the leaves and stems. Each rate of each test compound was applied to three tomato plants using four ml of spray solution per plant. One day after spraying the plants were inoculated with mature root knot nematode eggs containing J1 larvae, with 8,000 eggs per plant applied in 5 ml of water on soil at the stem base. Plants then were incubated in a growth chamber at 27° C. with all replicate pots randomized throughout the chamber. During the two weeks immediately following application of the test compounds all plants received sub-irrigation and the foliage was kept dry.
After three weeks incubation the plant roots were washed and nematode disease severity was assessed. Each root system was rated individually and a visual estimate of the percent of the root system afflicted with nematode galling was determined. Values of 0, 1, 5, 10, 20, 30, 40, 50, 60, 70, 80, or 100 percent galled roots were assigned to each plant. […] For each treatment (compound & rate) a standard deviation was calculated for the mean of the three replicate plants. Percent disease control relative to non-treated plants also was calculated.

[1] = 100 ppm foliar spray, tomato cv Rutgers, 3 weeks, mean of three plants, non-treated generally 60% or greater
[2] = 500 ppm foliar spray, tomato cv Rutgers, 3 weeks, mean of three plants, non-treated generally 60% or greater
[3] = 100 ppm foliar spray, tomato cv Rutgers, 3 weeks, * = no biological activity at the rate tested
[4] = 500 ppm foliar spray, tomato cv Rutgers, 3 weeks, * = no biological activity at the rate tested

N#CCNC(=O)CC(F)=C(F)F [Example 2, 3-BUTENAMIDE, N-CYANOMETHYL)-3,4,4- TRIFLUORO-]
Mean percent root disease (galled) [1]: 73%
Mean percent root disease (galled) [2]: 67%
pest or weed control at 100 ppm [3]: 8%
pest or weed control at 500 ppm [4]: 17%

CONC(=O)CC(F)=C(F)F [Example 3, 3-BUTENAMIDE, 3,4,4-TRIFLUORO-N-METHOXY-]
Mean percent root disease (galled) [1]: 77%
Mean percent root disease (galled) [2]: 70%
pest or weed control at 100 ppm [3]: 12%
pest or weed control at 500 ppm [4]: 20%

NC(=O)NNC(=O)CC(F)=C(F)F [Example 4, 3-BUTENOIC ACID, 3,4,4-TRIFLUORO-, 2-(AMINOCARBONYL)HYDRAZIDE]
Mean percent root disease (galled) [1]: 80%
Mean percent root disease (galled) [2]: 73%
pest or weed control at 100 ppm [3]: 0%
pest or weed control at 500 ppm [4]: 8%

COc1cc(OC)nc(NC(=O)CC(F)=C(F)F)n1 [Example 5, 3-BUTENAMIDE, N-(4,6-DIMETHOXY-2-PYRIMIDINYL)- 3,4,4-TRIFLUORO-]
Mean percent root disease (galled) [1]: 90%
Mean percent root disease (galled) [2]: 30%
pest or weed control at 100 ppm [3]: -3%
pest or weed control at 500 ppm [4]: 66%

C[Si](C)(C)CN(Cc1ccccc1)C(=O)CC(F)=C(F)F [Example 6, 3-BUTENAMIDE, 3,4,4-TRIFLUORO-N-(PHENYLMETHYL)- N-[(TRIMETHYLSILYL) METHYL]-]
pest or weed control at 100 ppm (foliar): 2%
pest or weed control at 500 ppm (foliar): 0%
Mean percent root disease (galled) (in vivo): 87% and 85%

O=C(CC(F)=C(F)F)Nc1ccc(S(=O)(=O)O)cc1 [Example 7, BENZENESULFONIC ACID, 4-[(3,4,4-TRIFLUORO-1-OXO-3- BUTENYL)AMINO]-]
Mean percent root disease (galled) [1]: 23%
Mean percent root disease (galled) [2]: 17%
pest or weed control at 100 ppm [3]: 56%
pest or weed control at 500 ppm [4]: 69%

CS(=O)(=O)NC(=O)CC(F)=C(F)F [Example 8, 3-BUTENAMIDE, 3,4,4-TRIFLUORO-N- (METHYLSULFONYL)-]
Mean percent root disease (galled) [1]: 80%
Mean percent root disease (galled) [2]: 5%
pest or weed control at 100 ppm [3]: 0%
pest or weed control at 500 ppm [4]: 94%

O=C(CC(F)=C(F)F)NS(=O)(=O)C(F)(F)F [Example 9, 3-BUTENAMIDE, 3,4,4-TRIFLUORO-, N-[(TRIFLUOROMETHYL)SULFONYL]-]
Mean percent root disease (galled) [1]: 80%
Mean percent root disease (galled) [2]: 5%
pest or weed control at 100 ppm [3]: 0%
pest or weed control at 500 ppm [4]: 94%

O=C(CC(F)=C(F)F)NCS(=O)(=O)O [Example 10, METHANESULFONIC ACID, [(3,4,4-TRIFLUORO-1-OXO-3- BUTENYL)AMINO]-]
Mean percent root disease (galled) [1]: 20%
Mean percent root disease (galled) [2]: 27%
pest or weed control at 100 ppm [3]: 62%
pest or weed control at 500 ppm [4]: 50%

O=C(CC(F)=C(F)F)n1cncn1 [Example 11, 1H-1,2,4-TRIAZOLE, 1-(3,4,4-TRIFLUORO-1-OXO-3- BUTENYL)-]
Mean percent root disease (galled) [1]: 80%
Mean percent root disease (galled) [2]: 7%
pest or weed control at 100 ppm [3]: 0%
pest or weed control at 500 ppm [4]: 92%

O=C(CC(F)=C(F)F)n1cccn1 [Example 12, 1H-PYRAZOLE, 1-(3,4,4-TRIFLUORO-1-OXO-3- BUTENYL)-]
Mean percent root disease (galled) [1]: 80%
Mean percent root disease (galled) [2]: 43%
pest or weed control at 100 ppm [3]: 0%
pest or weed control at 500 ppm [4]: 46%

FC(F)=C(F)CC(=S)Nc1ccccc1 [Example 13, 3-BUTENETHIOAMIDE, 3,4,4-TRIFLUORO-N-PHENYL-]
Mean percent root disease (galled) [1]: 40%
Mean percent root disease (galled) [2]: 27%
pest or weed control at 100 ppm [3]: 25%
pest or weed control at 500 ppm [4]: 50%

C[Si](C)(C)CCCOC(=O)CC(F)=C(F)F [Example 14, 3-BUTENOIC ACID, 3,4,4-TRIFLUORO-, 3-(TRIMETHYLSILYL)PROPYL ESTER]
pest or weed control at 100 ppm (foliar): 4%
pest or weed control at 500 ppm (foliar): 8%
Mean percent root disease (galled) (in vivo): 80% and 83%

C[Si](C)(C)CCSC(=O)CC(F)=C(F)F [Example 15, 3-BU[…], 3,4,4-TRIFLUORO-, S-[2-(TRIMETHYLSILYL)ETHYL] ESTER]
pest or weed control at 100 ppm (foliar): 2%
pest or weed control at 500 ppm (foliar): -3%
Mean percent root disease (galled) (in vivo): 90% and 85%

O=C(CC(F)=C(F)F)Sc1ncccn1 [Example 16, 3,-BUTENETHIOIC ACID, 3,4,4-TRIFLUORO-, S-2-PYRIMIDINYL ESTER]
Mean percent root disease (galled) [1]: 80%
Mean percent root disease (galled) [2]: 50%
pest or weed control at 100 ppm [3]: 0%
pest or weed control at 500 ppm [4]: 38%

O=P(O)(O)CC(F)=C(F)F [Example 18, PHOSPHONIC ACID, (2,3,3-TRIFLUORO-2-PROPENYL)-]
pest or weed control at 100 ppm (foliar): -5%
pest or weed control at 500 ppm (foliar): 0%
Mean percent root disease (galled) (in vivo): 73% and 77%

O=P(O)(CC(F)=C(F)F)c1ccccc1 [Example 19, PHOSPHINIC ACID, PHENYL(2,3,3-TRIFLUORO-2- PROPENYL)-, SODIUM SALT]
Mean percent root disease (galled) [1]: 73%
Mean percent root disease (galled) [2]: 73%
pest or weed control at 100 ppm [3]: 0%
pest or weed control at 500 ppm [4]: 0%

Cc1ccccc1C(=O)CC(F)=C(F)F [Example 20, 3-BUTEN-1-ONE, 3,4,4-TRIFLUORO-1-(2-METHYL PHENYL)-]
Mean percent root disease (galled) [1]: 53%
Mean percent root disease (galled) [2]: 47%
pest or weed control at 100 ppm [3]: 0%
pest or weed control at 500 ppm [4]: 12%
